In brackets after ≈: the same amount, converted by molar mass.
Tested on: HIV-1 (RF)
Assay: HIV RNA assay: microplate based compound evaluation in HIV-1 infected MT-2 cells
Format: cell-based
Settings: Human immunodeficiency virus 1, MT2, 72 h; HIV-1 (RF) infected MT-2 cells, 3 days at 37° C.; virus dilutions selected to give this ddC value (standardization of inoculum); read-out: IC90 value (concentration of compound required to reduce the HIV RNA level by 90%)
Method: Plasmid pDAB 72 containing both gag and pol sequences of BH10 (bp 113-1816) cloned into PTZ 19R was prepared according to Erickson-Viitanen et al. AIDS Research and Human Retroviruses 1989, 5, 577. The plasmid was linearized with Bam HI prior to the generation of in vitro RNA transcripts using the Riboprobe Gemini system II kit (Promega) with T7 RNA polymerase. Synthesized RNA was purified by treatment with RNase free DNAse (Promega), phenol-chloroform extraction, and ethanol precipitation. RNA transcripts were dissolved in water, and stored at -70° C. The concentration of RNA was determined from the A260.
Biotinylated capture probes were purified by HPLC after synthesis on an Applied Biosystems (Foster City, Calif.) DNA synthesizer by addition of biotin to the 5' terminal end of the oligonucleotide, using the biotin-phosphoramidite reagent of Cocuzza, Tet. Lett. 1989, 30, 6287. […]
MT-2 and MT-4 cells were maintained in RPMI 1640 supplemented with 5% fetal calf serum (FCS) for MT-2 cells or 10% FCS for MT-4 cells, 2 mM L-glutamine and 50 μg/mL gentamycin, all from Gibco. […] Infectious titers of HIV-1(RF) stocks were 1-3×10^7 PFU (plaque forming units)/mL as measured by plaque assay on MT-2 cells (see below). […]

IC90: 0.2 µg/mL (≈ 0.947 µM)
SMILES: Nc1ccn([C@H]2CC[C@@H](CO)O2)c(=O)n1 [ddC, 2',3'-dideoxycytidine]

Source: US6090821A, “Substituted quinolin-2 (1H)-ones useful as HIV reverse transcriptase inhibitors” (E. I. DuPont de Nemours and Company, priority 1999, dated 2000)
